# Source: the SangsterLogP compilation
row,Structure (SMILES),logP
1,Nc1cc(N2CCOCC2)nc(N)[n+]1[O-],0.36
2,CCCCN(CCCC)c1cc(N)[n+]([O-])c(N)n1,3.19
3,Nc1cc(N(C2CCCCC2)C2CCCCC2)nc(N)[n+]1[O-],3.89
4,CCCCCCCCCCNc1cc(N)[n+]([O-])c(N)n1,4.08
5,CCCCNc1cc(N)[n+]([O-])c(N)n1,1.02
6,CCN(CC)c1cc(N)[n+]([O-])c(N)n1,1.16
7,N=c1nc(N)c(N2CCCC2)cn1O,0.84
8,C=CCN(CC=C)c1cc(N)[n+]([O-])c(N)n1,1.6

# Second part, the molecule after the results:
row,logP,Structure (SMILES)
1,-0.04,CCNc1cc(N)[n+]([O-])c(N)n1
2,0.16,CN(C)c1cc(N)[n+]([O-])c(N)n1
3,-0.49,CNc1cc(N)[n+]([O-])c(N)n1
4,2.16,CCCN(CCC)c1cc(N)[n+]([O-])c(N)n1
5,1.62,Nc1cc(NC2CCCCC2)nc(N)[n+]1[O-]
